The source made the active and inactive calls.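 How the source made its calls: active means fitted curve reaches 40% activation at a concentration no higher than the top valid tested dose; inconclusive means flat fit between 30% and 70% activation, or poor fit; inactive means uptake decrease, flat fit within 30% of zero, the rest.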
Molecular target: Scavenger receptor class B member 1 (Mus musculus) (UniProt Q61009)
Assay: activators of SR-BI-mediated HDL uptake, dose response, cell-based, ldlA[mSR-BI] CHO, DiI fluorescence, cherry-pick (AID 602191);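 further: cell fluorescence from internalized DiI-labeled HDL after washing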;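 on AC40: potency of activators raising HDL uptake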;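 on activation (HDL uptake increase): 0% = median of DMSO wells and 100% = twice the DMSO signal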
Settings: ldlA[mSR-BI] CHO cells, 3 h

Sequence of Scavenger receptor class B member 1 (Mus musculus) (Q61009 whole entry, looked up): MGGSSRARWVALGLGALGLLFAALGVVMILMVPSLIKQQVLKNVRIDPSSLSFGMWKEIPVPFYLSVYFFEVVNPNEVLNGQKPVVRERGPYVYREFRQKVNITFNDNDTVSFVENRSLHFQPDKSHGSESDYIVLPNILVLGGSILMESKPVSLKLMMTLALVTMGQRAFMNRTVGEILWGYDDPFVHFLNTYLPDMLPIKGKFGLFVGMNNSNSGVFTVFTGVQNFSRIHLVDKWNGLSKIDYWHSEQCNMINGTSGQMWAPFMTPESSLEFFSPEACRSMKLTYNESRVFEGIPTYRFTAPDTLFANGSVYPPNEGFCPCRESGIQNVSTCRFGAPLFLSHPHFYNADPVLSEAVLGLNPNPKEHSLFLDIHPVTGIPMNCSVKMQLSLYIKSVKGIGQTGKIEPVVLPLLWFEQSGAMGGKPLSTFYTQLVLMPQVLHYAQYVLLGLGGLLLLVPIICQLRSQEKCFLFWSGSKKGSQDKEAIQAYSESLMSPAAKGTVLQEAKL

Compound	AC40
COc1ccc2sc(-c3ccccc3OC)c(-c3ccc(OCCN4CCCC4)cc3)c2c1	> 35 µM (inactive)
CCN1CCN(c2ccc(S(=O)(=O)N3CCOCC3)cc2NC(=O)C2CCC(C(C)(C)C)CC2)CC1 (configuration not stated)	> 35 µM (inactive)
CCOc1ccc(CN2CCNC(=O)C2CC(=O)NCC2CCOCC2)cc1 (configuration not stated)	> 35 µM (inactive)

Same assay, conditions: ldlA[mSR-BI] CHO cells, 3 h, at 35 µM (top of the series)

Compound	activation (HDL uptake increase)
COc1ccccc1N(CC(=O)Nc1cc(C)on1)S(=O)(=O)c1cccc(C(F)(F)F)c1	1.11% (inactive)
CN(C(=O)COC(=O)CN1C(=O)c2cccc([N+](=O)[O-])c2C1=O)c1ccccc1	-5.58% (inactive)
Cc1ccc(N2C(=O)C3C(C(=O)c4ccccc4)=NN(c4ccccc4)C3C2=O)cc1 (configuration not stated)	0.966% (inactive)
Cn1c(C(=O)N2CCC(C(N)=O)CC2)cc2cc(Cl)ccc21	-7.74% (inactive)
CC1CCCC(NC(=O)COC(=O)c2ccc3ccccc3n2)C1C (configuration not stated)	-7.88% (inactive)
Cc1ccc(NC(=O)CSCC(N)=O)cc1C	-9.19% (inactive)
O=S(=O)(c1ccccc1F)N1CCN(Cc2cc3c(cc2Br)OCCO3)CC1	-16.4% (inactive)
CC1CCc2c(C(=O)NCCN3CCOCC3)csc2C1 (configuration not stated)	-15.7% (inactive)
CCc1nc(SCC(=O)Nc2ccc([N+](=O)[O-])cc2)n[nH]1	-10.4% (inactive)
COC(=O)CNC(=O)COC(=O)c1cc(Cl)cc(Cl)c1N	-8.63% (inactive)
Cc1cc(NC(=O)CN2C(=O)NC(C)(c3ccc(OC(F)F)cc3)C2=O)no1 (configuration not stated)	-7.97% (inactive)
COc1ccccc1OCC(=O)OCc1cc(-c2ccco2)on1	-5.82% (inactive)
CC(C)C(C)(C#N)NC(=O)CSc1nnc(C(F)(F)F)n1C (configuration not stated)	-5.69% (inactive)
CCn1nnnc1-c1ccc(OC)c(S(=O)(=O)Nc2ccc(C)c(C)c2)c1	-11.8% (inactive)
Cc1ccc(NC(=O)COC(=O)Cn2ccc(=O)[nH]c2=O)cc1C	-10.8% (inactive)
Cc1ccc(S(=O)(=O)c2cc(OC(=O)c3ccco3)ccc2OC(=O)c2ccco2)cc1	-6.59% (inactive)
O=C(CN1CCN(S(=O)(=O)c2ccc(Cl)s2)CC1)NCc1ccc(Cl)cc1	-4.32% (inactive)
COc1ccccc1Cc1nnnn1CC(=O)O	-7.37% (inactive)
O=C1C2C3C=CC(C4CC34)C2C(=O)N1c1nccs1 (configuration not stated)	-0.437% (inactive)
CC(=O)Oc1ccc2oc(=O)c3c(c2c1)CCCN3C(=O)CN1CCN(c2ncccn2)CC1	-12.6% (inactive)
O=C(NCCCCc1ccccc1)C1CC(c2cccc(F)c2)=NO1 (configuration not stated)	-4.48% (inactive)
CCn1c(COC(=O)CNC(=O)c2ccccc2)nc2cc(S(=O)(=O)N(C)C)ccc21	-13.2% (inactive)
CNC(=O)c1ccc(N(Cc2ccccc2C)S(C)(=O)=O)cc1	-9.16% (inactive)
CN1CCN(CCC(=O)N2c3ccccc3Sc3ccc(Cl)cc32)CC1	-3.2% (inactive)
COc1cccc(OC)c1C(=O)N1CCN(Cc2ccccc2C)CC1	-7.18% (inactive)
O=C(NCC(=O)N1CCN(c2ccccc2)CC1)c1ccc(Br)o1	-14.4% (inactive)
C=CC[C@@H](CC(=O)N[C@@H](CO)Cc1ccccc1)C(=O)N[C@H](COC(=O)[C@@H](CC=C)CC(=O)OC(C)(C)C)Cc1c[nH]c2ccccc12	65.3% (inactive)

Compound	activation (HDL uptake increase)
Nc1nnc(SCC(=O)NN2C(=O)NC3(CCCCC3)C2=O)s1	-7.59% (inactive)
COc1ccc2c(c1OC)C(=O)OC2CC(=O)O (configuration not stated)	3.81% (inactive)
O=C(CSc1nnnn1-c1ccccc1)N1CCNC1=O	-10.4% (inactive)
CC1Cc2cc(/C(O)=C3/C(=O)C(=O)N(CCN4CCOCC4)C3c3ccc([N+](=O)[O-])cc3)ccc2O1 (configuration not stated)	13.1% (inactive)
Nc1ncnc2c1ncn2[C@@H]1O[C@H](CNCc2cccn2-c2nccs2)[C@@H](O)[C@H]1O	10.3% (inactive)
Cc1ccc(OCCC(=O)OCC(=O)NNC(=O)c2ccccc2)cc1	8.09% (inactive)
Cc1cc(C)c2[nH]c(=O)c(CN(CC3CCCO3)C(=O)c3cnccn3)cc2c1 (configuration not stated)	-7.36% (inactive)
COc1ccccc1CN(C(=O)CCl)C(C(=O)NC1CCCCC1)c1ccncc1 (configuration not stated)	3.52% (inactive)
O=C(NCc1cccs1)C1CCCN(C(=O)Nc2ccccc2)C1 (configuration not stated)	7.76% (inactive)
O=C(CN1CCN(S(=O)(=O)c2ccc(F)cc2)CC1)Nc1ccc(F)cc1F	5.31% (inactive)
C=CC[C@@H](CC(=O)N[C@@H](CO)Cc1ccccc1)C(=O)N[C@@H](COC(=O)[C@@H](CC=C)Cc1ccc(F)cc1)Cc1c[nH]c2ccccc12	-7.03% (inactive)
Cc1cc(Cl)ccc1OCC(=O)OCC(=O)N1CCC(C(N)=O)CC1	-16.7% (inactive)
NNC(=O)Cn1nc(Cc2ccccc2)n(N)c1=O	-4.95% (inactive)
CCN1C(=O)C2C(c3cccc(F)c3)NC(CC)(C(=O)OC)C2C1=O (configuration not stated)	-4.79% (inactive)
O=C1[C@H]2[C@@H](c3ccc(F)cc3)N3C(=O)N(c4ccc(Br)cc4)C(=O)[C@@]3(Cc3ccccc3)[C@H]2C(=O)N1C1CCCCC1	6.23% (inactive)
CN(C(=O)c1ccccc1Cl)c1ccccc1C(=O)NCc1ccccc1	-10.9% (inactive)
NCCc1nnc(SCc2ccccc2)o1	5.16% (inactive)
COc1ccc(NC(=O)N(C)C[C@H]2Oc3c(NC(=O)c4ccncc4)cccc3C(=O)N([C@H](C)CO)C[C@@H]2C)cc1	-11.2% (inactive)
CC1(C)CC(=O)C2=C(C1)N(CC1CCCO1)C(=O)C2(O)C(F)(F)F (configuration not stated)	8.29% (inactive)
CC1CCCC(C)N1C(=O)COC(=O)CN1C(=O)c2ccccc2C1=O (configuration not stated)	-4.2% (inactive)
Cn1c(=O)[nH]c(=O)c2c1nc(N1CCN(c3ccccc3)CC1)n2CCSc1ncccn1	2.78% (inactive)
CN(C)S(=O)(=O)c1ccc(N2CCCC2)c(C(=O)NC2CCC(O)CC2)c1 (configuration not stated)	-3.29% (inactive)
COc1ccccc1C(=O)NNC(=S)NC(=O)c1sc2ccccc2c1Cl	-16.5% (inactive)
CSc1ccc(S(=O)(=O)NCC(=O)OCC(=O)N(C)Cc2ccccc2)cc1[N+](=O)[O-]	4.31% (inactive)
CCOC(=O)C1CCCN(C(=O)CS(=O)(=O)Cc2ccccc2)C1 (configuration not stated)	7.75% (inactive)
CCOc1ccc(CN2CCNC(=O)C2CC(=O)NCCCOc2cccnc2)cc1 (configuration not stated)	-10.4% (inactive)
N#CCCN1CCN(S(=O)(=O)c2ccc(C3CCCCC3)cc2)CC1	12% (inactive)

Compound	activation (HDL uptake increase)
COCCN(CC(=O)Nc1cc(Cl)ccc1-n1cncn1)Cc1nc2ccccc2c(=O)[nH]1	-4.92% (inactive)
COc1ccc(N(CC(=O)NCc2ccccc2)S(=O)(=O)c2c(C)nn(C)c2C)cc1	-6.65% (inactive)
CCOc1ccc(S(=O)(=O)NCCc2cn3ccccc3n2)cc1	2.16% (inactive)
CCCCC(=O)OCC(=O)C1(O)Cc2c(O)c3c(c(O)c2C(OC2CC(NC(=O)C(F)(F)F)C(O)C(C)O2)C1)C(=O)c1c(OC)cccc1C3=O (configuration not stated)	16.6% (inactive)
O=C(NCc1ccccc1)C1=C[C@H](c2coc3ccccc3c2=O)C[C@H](OCc2ccc(CO)cc2)O1	-1.3% (inactive)
O=C(CCc1nc2ccccc2c(=O)[nH]1)N1CCN(c2ccccc2Cl)CC1	-8.18% (inactive)
Cc1cccc(C)c1NC(=O)N1C2CCCC1CC(NC(=O)C(C)(C)C)C2 (configuration not stated)	5.39% (inactive)
COC(=O)c1oc2ccc(Br)cc2c1NC(=O)CN1CCN(C)CC1	4.26% (inactive)
O=C(O)COCC(=O)N1CCc2c([nH]c3ccccc23)C1C(F)(F)F (configuration not stated)	-5.94% (inactive)
O=C(Cc1ccc(S(=O)(=O)N2CCOCC2)s1)OCc1ccc(Cl)cc1	-16.7% (inactive)
Cc1cccc(NC(=O)CN2CCN(C(=O)C3CCCO3)CC2)c1C (configuration not stated)	-0.486% (inactive)
CC(=O)Nc1ccc(SCC(=O)NC(=O)c2ccc(S(=O)(=O)N(C)C)cc2)cc1	-3.69% (inactive)
Cc1ccc(C2(CCNCc3ccc(N(C)C)cc3)CCOC(C(C)C)C2)cc1 (configuration not stated)	-1.19% (inactive)
C[C@H](CO)N1C[C@H](C)[C@H](CN(C)C)Oc2ccc(NS(=O)(=O)c3ccc(F)cc3)cc2CC1=O	-7.7% (inactive)
O=C1CCC(C(=O)N2CCCCCCC2)CN1Cc1cccc(C(F)(F)F)c1 (configuration not stated)	-0.452% (inactive)
COCCNC(=O)C1(C)C=CC2(CCCCC2)N1C(=O)c1ccccc1 (configuration not stated)	3.23% (inactive)
CN(C)CCCNC(=O)/C=C/c1ccc2c(c1)OCO2	-4.26% (inactive)
O=C(C[C@H]1C/C=C\C[C@@H](Cc2ccc(F)cc2)C(=O)OC[C@H]2CCCN2C1=O)N[C@H](CO)Cc1ccccc1	6.35% (inactive)
O=C(O)CN(Cc1ccco1)S(=O)(=O)c1ccc(F)cc1	-1.5% (inactive)
Cc1cc(OCC(=O)OCC(=O)NC2CCCCC2C)ccc1Cl (configuration not stated)	-2.13% (inactive)
CC(C)OC(=O)C1C(=O)CC(C)(O)C(C(=O)OC(C)C)C1c1cccc([N+](=O)[O-])c1 (configuration not stated)	-0.289% (inactive)
Cc1nc(CCNC(=O)Cc2ccc(Cl)cc2)cs1	-4.62% (inactive)
CCc1nnc(NC(=O)c2nc(S(=O)(=O)Cc3ccc(C)cc3)ncc2Cl)s1	-22.7% (inactive)
CN(CC(=O)Nc1cccc(F)c1)C(=O)C1CC(=O)N(CCc2ccccc2)C1 (configuration not stated)	-13.2% (inactive)
O=c1[nH]c(C2CCN(S(=O)(=O)c3ccc4c(c3)OCCO4)CC2)nc2c1nnn2Cc1ccc(F)cc1	-4.95% (inactive)

Source: PubChem BioAssay AID602191 (Broad Institute, 2012)
